PMC13539321 (Journal of Advanced Research, 2025)

Assays:
B16F10 cells [1] = experiment: Intracellular melanogenesis inhibition assay, B16F10; assay type: cell-based; details: melanotan II 100 nM, 72 h; for order of inhibitory effectiveness (macroscopic colour): 100 μM; for inhibitory effect on melanin synthesis: various concentrations
mushroom TYR = mushroom TYR (Agaricus bisporus, UniProt C7FF04); experiment: biochemical; assay type: binding
B16F10 cells [2] = experiment: Cytotoxicity assay; assay type: cell-based; details: 72 h
[3] = target: Mushroom TYR (EC 1.14.18.1) (Agaricus bisporus, UniProt C7FF04); experiment: biochemical; details: IC50 value ± SD
Chain of Mushroom TYR (EC 1.14.18.1) (C7FF04 1-392 limits assumed): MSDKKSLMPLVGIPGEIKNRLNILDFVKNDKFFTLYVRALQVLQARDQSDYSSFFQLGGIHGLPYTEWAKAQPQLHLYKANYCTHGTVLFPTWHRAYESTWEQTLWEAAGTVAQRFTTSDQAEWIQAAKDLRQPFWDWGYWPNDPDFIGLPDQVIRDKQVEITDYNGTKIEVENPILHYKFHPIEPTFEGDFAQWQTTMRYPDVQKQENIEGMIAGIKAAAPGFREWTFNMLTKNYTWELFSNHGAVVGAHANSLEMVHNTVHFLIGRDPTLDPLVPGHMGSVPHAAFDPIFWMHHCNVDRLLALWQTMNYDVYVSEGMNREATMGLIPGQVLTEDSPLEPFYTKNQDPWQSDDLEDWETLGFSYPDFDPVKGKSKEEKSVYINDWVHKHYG

A375 cells [4] = experiment: Cytotoxicity assay; assay type: cell-based; details: 72 h
3D melanin skin model = experiment: 3D human skin model assay; assay type: cell-based; details: 100 µM, six doses, UVB 50 mJ/cm^2 for seven days, n = 6
[5] = human, microsomes
Plasma stability study = assay type: in vitro ADME; details: human
A375 cells [6] = experiment: Intracellular melanogenesis inhibition assay, A375; assay type: cell-based; details: melanotan II 100 nM, 72 h, all tested concentrations
in vitro = details: human, microsomes
[7] = L-dopa, substrate L-dopa (diphenolase), n = 3, screening of de novo generated compounds (Table 1)
[8] = L-tyrosine, substrate L-tyrosine (monophenolase), n = 3, screening of de novo generated compounds (Table 1)

Chain of mushroom TYR (C7FF04 1-392 limits assumed): as above

Compound | order of inhibitory effectiveness (macroscopic colour) (B16F10 cells [1]) | IC50 [3, 7] [µM] | IC50 [3, 8] [µM] | cytotoxicity (A375 cells [4]; 200 μM) | also measured
O=C(CCc1cccc(O)c1)N1CCN(Cc2ccc(F)cc2)CC1 [Compound V, 1-(4-(4-fluorobenzyl)piperazin-1-yl)-3-(3-hydroxyphenyl)propan-1-one] | compound V-24 > β-arbutin > kojic acid ≈ compound V | 18.5 ± 2.4 | 9.6 ± 1.1 | weak cytotoxicity | inhibitory effect on melanin synthesis (B16F10 cells [1]): comparable to that of kojic acid; Kd (mushroom TYR): 24.2 ± 20.3 µM; cytotoxicity (B16F10 cells [2]; 200 μM): no cytotoxicity; IC50 ([3]; L-dopa): 41.8 ± 3 µM; IC50 ([3]; L-tyrosine): 11.9 ± 0.5 µM; cytotoxicity (A375 cells [4]; 100 μM): no cytotoxicity
Cc1ccc(CN2CCN(C(=O)/C=C/c3ccc(O)cc3O)CC2)cc1 [Compound V-24, (E)-3-(2,4-dihydroxyphenyl)-1-(4-(4-methylbenzyl)piperazin-1-yl)prop-2-en-1-one] | compound V-24 > β-arbutin > kojic acid ≈ compound V |  |  | weak cytotoxicity | inhibitory effect on melanin synthesis (B16F10 cells [1]): akin to that of β-arbutin; Kd (mushroom TYR): 13.8 ± 4.2 µM; L value (3D melanin skin model): 83.38 ± 0.40; cytotoxicity (B16F10 cells [2]; 100 μM): no cytotoxicity; Eh [5]: 69.00%; half-life at 1 µM (Plasma stability study): 8.74 h; remaining at 2 h, 1 µM (Plasma stability study): 89.1%; inhibitory effect on melanin synthesis (A375 cells [6]): most pronounced inhibitory effect; IC50 ([3]; L-dopa): 0.018 ± 0.0007 µM; IC50 ([3]; L-tyrosine): 0.02 ± 0.001 µM; half-life at 1 µM (in vitro): 0.58 h; remaining at 0.75 h, 1 µM (in vitro): 42%; cytotoxicity (A375 cells [4]; 100 μM): no cytotoxicity
O=C(C=Cc1ccccc1)NCCc1cccc(O)c1 [XI, N-(3-hydroxyphenethyl)cinnamamide] |  | > 800 | 622 ± 82.8 |  | 
O=C(/C=C/c1ccccc1)N1CCN(c2cccc(O)c2)CC1 [XII, (E)-1-(4-(3-hydroxyphenyl)piperazin-1-yl)-3-phenylprop-2-en-1-one] |  | 199 ± 22.7 | 35.9 ± 1.2 |  | 
Cc1nc2ccc(C(=O)NCc3ccc(O)cc3)cc2[nH]1 [XIII, N-(4-hydroxybenzyl)-2-methyl-1H-benzo[d]imidazole-6-carboxamide] |  | > 800 | 99.7 ± 15.3 |  | 
Cc1nc2cc(C(=O)N3CCCN(Cc4ccccc4)CC3)ccc2[nH]1 [XIV, (4-benzyl-1,4-diazepan-1-yl)(2-methyl-1H-benzo[d]imidazol-5-yl)methanone] |  | > 800 | 449 ± 36.1 |  | 
O=C(c1cccc(OCc2ccccc2)c1)N1CCN(c2ccc(O)cc2)CC1 [XV, (3-(benzyloxy)phenyl)(4-(4-hydroxyphenyl)piperazin-1-yl)methanone] |  | > 800 | > 800 |  | 
O=C(Oc1ccc(N2CCNCC2)cc1)c1cnc2ccccc2c1 [XVI, 4-(piperazin-1-yl)phenyl quinoline-3-carboxylate] |  | 138 ± 5.1 | 16 ± 1.6 |  | 
O=C(Oc1ccc(N2CCNCC2)cc1)c1cc(O)nc2ccccc12 [XVII, 4-(piperazin-1-yl)phenyl 2-hydroxyquinoline-4-carboxylate] |  | 303 ± 47.6 | 164 ± 19.8 |  | 
O=c1cc(CO)occ1O [kojic acid, reference compound] | compound V-24 > β-arbutin > kojic acid ≈ compound V |  |  | no cytotoxicity | L value (3D melanin skin model): 70.98 ± 0.68; cytotoxicity (B16F10 cells [2]; 200 μM): no cytotoxicity
